In patent US11446384B2, “Agent for targeting heart comprising tannic acid” (Korea Research Institute of Chemical Technology, priority 2018, dated 2022):

Tests used:
[1] = biological target: T1, elastin (Homo sapiens, UniProt P15502); assay: SPR binding analysis of TA and elastin; details: surface adsorbed with elastin, TA 2 mg/mL
T1 sequence (P15502 27-786): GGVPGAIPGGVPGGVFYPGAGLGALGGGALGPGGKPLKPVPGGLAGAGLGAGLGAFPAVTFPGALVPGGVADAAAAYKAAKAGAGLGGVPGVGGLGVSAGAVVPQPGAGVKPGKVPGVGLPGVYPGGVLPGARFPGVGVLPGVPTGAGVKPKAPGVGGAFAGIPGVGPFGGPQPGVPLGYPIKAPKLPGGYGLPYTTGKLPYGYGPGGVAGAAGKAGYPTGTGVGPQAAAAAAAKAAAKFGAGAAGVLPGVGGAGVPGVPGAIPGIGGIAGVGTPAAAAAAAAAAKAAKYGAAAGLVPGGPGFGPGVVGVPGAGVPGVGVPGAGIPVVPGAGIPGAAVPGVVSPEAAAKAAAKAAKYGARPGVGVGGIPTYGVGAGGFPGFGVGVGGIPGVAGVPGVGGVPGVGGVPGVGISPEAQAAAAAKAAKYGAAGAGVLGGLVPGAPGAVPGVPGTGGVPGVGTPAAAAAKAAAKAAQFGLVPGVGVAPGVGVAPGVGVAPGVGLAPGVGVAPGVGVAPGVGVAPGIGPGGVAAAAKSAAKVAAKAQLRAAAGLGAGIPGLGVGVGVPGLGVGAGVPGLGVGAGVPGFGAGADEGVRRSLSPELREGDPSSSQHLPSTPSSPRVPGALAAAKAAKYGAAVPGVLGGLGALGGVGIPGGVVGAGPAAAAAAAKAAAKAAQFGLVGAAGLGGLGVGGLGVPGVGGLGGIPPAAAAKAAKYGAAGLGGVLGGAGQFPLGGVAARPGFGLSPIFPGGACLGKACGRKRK
Procedure: (§1) For SPR analysis, each solution of elastin, type I collagen (10 μg/mL) and TA (2 mg/mL) was prepared by diluting them in PBS (pH 7.3). All the solutions were filtered with 0.2 μm microfilter (Millipore, USA). Each protein (elastin or type I collagen) was adhered on Biacore gold (Au) sensor chip for 600 seconds. The chip was washed for 10 minutes to eliminate such samples attached weakly thereon. SPR analysis was performed at the flow rate of 10 μl/min using PBS as a flow buffer.

[2] = biological target: T2, type I collagen (Homo sapiens, UniProt P02452+P08123); assay: Turbidimetry binding analysis of TA and type I collagen; details: type I collagen 0.24 mg/mL, TA 17 mg/mL, 1:1
T2 sequence (P02452 162-1218 limits assumed): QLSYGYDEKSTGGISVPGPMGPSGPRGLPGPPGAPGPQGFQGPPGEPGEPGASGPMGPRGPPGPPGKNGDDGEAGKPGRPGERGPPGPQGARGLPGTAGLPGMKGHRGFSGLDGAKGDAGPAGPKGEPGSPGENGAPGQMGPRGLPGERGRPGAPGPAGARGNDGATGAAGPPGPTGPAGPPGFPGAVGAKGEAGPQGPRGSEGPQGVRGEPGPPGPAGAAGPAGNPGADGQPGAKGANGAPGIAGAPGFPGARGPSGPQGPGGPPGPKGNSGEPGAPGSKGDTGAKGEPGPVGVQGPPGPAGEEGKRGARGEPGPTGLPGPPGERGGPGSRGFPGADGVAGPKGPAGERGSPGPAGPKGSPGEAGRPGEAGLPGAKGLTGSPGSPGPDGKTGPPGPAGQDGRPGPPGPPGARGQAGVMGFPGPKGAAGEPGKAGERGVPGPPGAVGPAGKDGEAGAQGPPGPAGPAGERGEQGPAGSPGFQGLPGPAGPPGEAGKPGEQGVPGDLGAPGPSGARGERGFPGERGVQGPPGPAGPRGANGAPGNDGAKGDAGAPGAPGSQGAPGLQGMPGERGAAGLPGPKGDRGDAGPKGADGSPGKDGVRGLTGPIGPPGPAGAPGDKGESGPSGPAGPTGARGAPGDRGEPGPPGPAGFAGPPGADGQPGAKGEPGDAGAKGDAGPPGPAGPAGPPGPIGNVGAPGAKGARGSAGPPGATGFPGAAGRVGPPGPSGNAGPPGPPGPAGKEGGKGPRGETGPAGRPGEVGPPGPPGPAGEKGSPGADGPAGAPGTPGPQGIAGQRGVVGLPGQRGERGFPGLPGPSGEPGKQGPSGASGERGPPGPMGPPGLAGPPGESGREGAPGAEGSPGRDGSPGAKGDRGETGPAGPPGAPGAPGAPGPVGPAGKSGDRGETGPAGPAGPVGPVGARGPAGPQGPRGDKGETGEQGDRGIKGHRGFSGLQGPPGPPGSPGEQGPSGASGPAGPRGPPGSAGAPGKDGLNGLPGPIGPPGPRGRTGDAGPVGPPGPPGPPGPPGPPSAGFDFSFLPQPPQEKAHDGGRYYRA
T2 sequence (P08123 80-1119 limits assumed): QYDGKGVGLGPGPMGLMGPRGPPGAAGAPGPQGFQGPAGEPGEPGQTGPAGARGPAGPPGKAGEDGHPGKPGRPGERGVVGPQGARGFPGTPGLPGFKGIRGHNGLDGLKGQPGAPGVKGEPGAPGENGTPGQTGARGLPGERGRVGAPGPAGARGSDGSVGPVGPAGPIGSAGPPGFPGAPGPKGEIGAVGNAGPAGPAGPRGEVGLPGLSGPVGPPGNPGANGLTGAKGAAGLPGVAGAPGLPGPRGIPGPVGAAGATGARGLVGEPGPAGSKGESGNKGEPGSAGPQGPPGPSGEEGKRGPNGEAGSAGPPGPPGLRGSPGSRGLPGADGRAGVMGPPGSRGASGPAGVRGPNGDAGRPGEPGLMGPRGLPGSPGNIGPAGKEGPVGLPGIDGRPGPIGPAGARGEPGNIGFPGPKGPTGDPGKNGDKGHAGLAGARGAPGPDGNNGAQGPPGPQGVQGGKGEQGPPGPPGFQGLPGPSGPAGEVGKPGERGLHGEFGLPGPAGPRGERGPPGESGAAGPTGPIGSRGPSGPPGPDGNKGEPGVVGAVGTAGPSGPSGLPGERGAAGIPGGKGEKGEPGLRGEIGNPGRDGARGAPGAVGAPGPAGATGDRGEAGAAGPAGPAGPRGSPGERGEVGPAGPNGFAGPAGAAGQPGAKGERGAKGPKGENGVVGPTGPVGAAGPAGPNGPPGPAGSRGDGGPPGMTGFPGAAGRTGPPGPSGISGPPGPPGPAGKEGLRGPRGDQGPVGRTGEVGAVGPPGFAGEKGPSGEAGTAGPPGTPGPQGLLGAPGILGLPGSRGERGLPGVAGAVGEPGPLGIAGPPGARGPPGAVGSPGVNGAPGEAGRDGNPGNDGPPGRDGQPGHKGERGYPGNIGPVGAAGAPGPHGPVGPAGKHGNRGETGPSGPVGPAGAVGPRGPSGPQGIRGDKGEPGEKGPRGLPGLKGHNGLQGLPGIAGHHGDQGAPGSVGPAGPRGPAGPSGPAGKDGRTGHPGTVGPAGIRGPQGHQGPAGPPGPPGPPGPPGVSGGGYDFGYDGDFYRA
Procedure: (§2) For turbidity analysis, each solution of elastin, type I collagen, HS and HA was prepared by diluting them in PBS at the concentration of 0.24 mg/mL. TA (17 mg/mL) was added to each solution at the volume ratio of 1:1, followed by mixing vigorously. Turbidity was measured at 600 nm using UV/vis spectrometer (HP8453, Hewlett-Packard, USA).

[3] = Turbidimetry binding analysis of TA and heparin sulfate; details: HS 0.24 mg/mL, TA 17 mg/mL, 1:1
Procedure: as §2

[4] = biological target: T2, type I collagen; assay: SPR binding analysis of TA and type I collagen; details: surface adsorbed with collagen, TA 2 mg/mL
Procedure: as §1

[5] = biological target: T1, elastin; assay: Turbidimetry binding analysis of TA and elastin; details: elastin 0.24 mg/mL, TA 17 mg/mL, 1:1
Procedure: as §2

[6] = biological target: T1, elastin; assay: ITC binding analysis of TA and elastin
Procedure: Elastin (210 μg/mL) and TA (2.5 mg/mL) solutions were used for ITC analysis. Elastin was placed in a sample cell. The TA solution was placed in a syringe, which was injected to the elastin in the sample cell (250 μl) (50 sequential injections, 5 μl per injection) for titration (with stirring at 350 rpm). Time interval was set at 180 seconds for subsequent injection, and raw data was processed using Microcal Origin (Microcal Software, Northampton, USA).

[7] = Turbidimetry binding analysis of TA and hyaluronic acid; details: HA 0.24 mg/mL, TA 17 mg/mL, 1:1
Procedure: as §2

[8] = system: myocardial ischemia reperfusion (MIR); assay: Infarct size (TTC staining) in MIR animal model after intravenous bFGF; assay type: in vivo, rats (SD rats); details: MIR rats, 28 days after injection
Procedure: Particularly, rats (SD rats, 8 weeks old, male, 230-270 g) were anesthetized with a mixture of isoflurane (3 cc min^-1), Rompun, xylazine (1 mg kg^-1) and oxygen in an induction chamber. Then, the rats were intubated and a mixture of isoflurane and oxygen was allowed to flow at a rate of 1 cc min^-1. The rat heart was exposed through left thoracotomy, followed by occulusion for 10 minutes. The suture line was quickly loosened to resume blood flow through the left anterior descending artery (LAD). […] Upon completion of the hemodynamic evaluation, the heart was separated and immersed in warm PBS ( 37° C.) to eliminate blood residues. Then, the heart was quickly frozen at -20° C., and the frozen heart was sliced lengthwise approximately 2 mm away the apex. The slice was placed on a cell culture dish, which was treated with 1% TTC (triphenyltetrazolium chloride) dissolved in PBS at 37° C. for 15 minutes. After staining, the heart slice was photographed with a scanner. Then, live tissues stained with red and necrotic tissues non-stained and thus presented as white were distinguished. The size of the infarct area was measured digitally using ImageJ software, and the results are presented as %.

[9] = system: myocardial ischemia reperfusion (MIR); assay: In vivo hemodynamic evaluation of left ventricular function in MIR animal model; design: species or system rats (SD rats); details: MIR rats; for EDP / EDV / ESP / ESV / Ea / HR / SW / Tau: 5 μg i.v., 28 days
Procedure: Particularly, rats (SD rats, 8 weeks old, male, 230-270 g) were anesthetized with a mixture of isoflurane (3 cc min^-1), Rompun, xylazine (1 mg kg^-1) and oxygen in an induction chamber. Then, the rats were intubated and a mixture of isoflurane and oxygen was allowed to flow at a rate of 1 cc min^-1. The rat heart was exposed through left thoracotomy, followed by occulusion for 10 minutes. The suture line was quickly loosened to resume blood flow through the left anterior descending artery (LAD). […] 28 days after the injection, in vivo hemodynamic evaluation was performed to investigate the left ventricular function using […]500 (Transonic, USA) outputting data to LabScribe data collection software (iWorx/CB Sciences, USA).

[10] = Size of tannylated SP (particle size analyzer); assay type: physicochemical; details: [SP]/[TA] ratio of 20 or 10
Procedure: The mixed solutions with the [SP]/[TA] ratios of 20, 10, 5, 1 and 0.5 prepared to produce tannylated SP in Example 2 were observed by naked eye. Then, the size of tannylated SP ([SP]/[TA] ratio=20 and 10, volume=1 mL) was analyzed using a particle size analyzer (Zetasizer nano-ZS, Malvern instrument, UK).

[11] = 5 μg i.v., non-treated control 51%

Molecule	infarct size [8, 11]	EDP [9] [mmHg]	EDV [9] [µL]	ESP [9] [mmHg]	ESV [9] [µL]	Ea [9] [mmHg/μL]	HR [9] [bpm]	SW [9] [mmHg · mL · kg]	Tau [9] [ms]	further results
O=C(OC[C@H]1O[C@@H](OC(=O)c2cc(O)c(O)c(OC(=O)c3cc(O)c(O)c(O)c3)c2)[C@H](OC(=O)c2cc(O)c(O)c(OC(=O)c3cc(O)c(O)c(O)c3)c2)[C@@H](OC(=O)c2cc(O)c(O)c(OC(=O)c3cc(O)c(O)c(O)c3)c2)[C@@H]1OC(=O)c1cc(O)c(O)c(OC(=O)c2cc(O)c(O)c(O)c2)c1)c1cc(O)c(O)c(OC(=O)c2cc(O)c(O)c(O)c2)c1 [tannic acid]	–	–	–	–	–	–	–	–	–	SPR ΔRU value [1]: 1319; turbidity (A600) of collagen solution after addition of TA [2]: 0.173±0.022; turbidity change of HS solution after addition of TA [3]: no turbidity change was observed; SPR ΔRU value [4]: 793; turbidity (A600) of elastin solution after addition of TA [5]: 1.219±0.022; [TA]/[elastin] ratio of first step (TA conjugated with elastin inter-molecularly) ([6]; ITC): up to 20; [TA]/[elastin] ratio of second step (inter-TA/elastin complexes conjugated each other) ([6]; ITC): ≥ 30; ITC thermodynamics of binding between TA and elastin ([6]; elastin 210 μg/mL, TA […]): exothermic interaction; turbidity change of HA solution after addition of TA [7]: no turbidity change was observed
bFGF: basic fibroblast growth factor, SEQ ID NO: 1	31%	8.5 ± 0.9	365.3 ± 27.5	85.3 ± 1.7	254.5 ± 13.8	0.86 ± 0.12	316.5 ± 12.9	1.51 ± 0.14	11.7 ± 0.5	infarct size ([8]; 25 μg i.v.): not much different from when 5 μg of bFGF was administered
tannylated SP: substance P (SEQ ID NO: 2, RPKPQQFFGLM) mixed with tannic acid solution at [SP]/[TA] ratios 0.5-20	–	–	–	–	–	–	–	–	–	size of complex [10]: up to 1 μm
tannylated bFGF: bFGF (SEQ ID NO: 1) mixed with TA solution, stoichiometric molar ratio [TA]/[bFGF] of 143	approximately 16%	9.8 ± 1.6	295.9 ± 23.3	103.8 ± 4.6	133.9 ± 19.5	0.77 ± 0.14	322.7 ± 18.0	3.00 ± 0.53	11.7 ± 1.1	hemodynamic functional values (left ventricular pressure, stroke volume, cardiac output, ventricular contractility index) ([9]; i.v., 28 days after injection, versus sham group): recovered all the hemodynamic functional values
